This is an account of results in patent US20210260101A1, “POTENTIATED ANTIBIOTIC COMPOSITIONS AND METHODS OF USE FOR TREATING BACTERIAL INFECTIONS AND BIOFILMS” (priority 2018, published 2021).

Test [1] concerns S. epidermidis ATCC 12228 (MSSE 12228). The test can be described thus: MIC/potentiation against MSSE 12228. The class given is cell-based, Staphylococcus epidermidis.
The subject of test [2] is MRSA clinical isolate OU11. The test can be described thus: Clinical laboratory susceptibility (MicroScan), MRSA isolate 11. The class given is cell-based, S. aureus. The conditions noted are these: MicroScan PC33 gram positive panel.
Test [3] relates to S. epidermidis ATCC 35984 (MRSE 35984). The test can be described thus: MIC/potentiation against MRSE 35984 (Example 1). The class given is cell-based, Staphylococcus epidermidis.
For the next test, the system named is MRSE 35984. The test can be described thus: Checkerboard assay (Example 3), MRSE 35984. The class given is cell-based, Staphylococcus epidermidis. The method, then:
(§1) Cells were grown at 37° C. The change in OD600 (optical density at 600 nm) was measured and recorded after 24 hr of treatment. Each checkerboard trial was done in triplicate using sterile Greiner CellStar™ flat bottom polystyrene plates, catalog #655180.

The next test concerns MRSE 35984 biofilms. The test can be described thus: Biofilm kill curve. It is filed as cell-based, Staphylococcus epidermidis. The conditions noted are these: 64 μg/mL BPEI, 16 μg/mL oxacillin, or both. How it is done:
Biofilm was grown in an MBEC inoculator plate for 24 hours with shaking to facilitate biofilm formation. At time zero, the prongs were sonicated in PBS for 30 minutes and then plated on agar for CFU counting. […] The prongs on the MBEC inoculator were washed in PBS for 10 seconds and then transferred into the new treated base plate and incubated. Agar CFU plating was performed at 2 hours, 4 hours, 8 hours, and 24 hours for each treatment group. All the agar plating was incubated at 35° C. and counted for colony forming units the next day. Each trial was done in duplicate.

For a further test, the system named is MRSA USA 300 ATCC 1717. The test can be described thus: Checkerboard MIC assay against MRSA USA300 (Example 1). The class given is cell-based, Staphylococcus aureus. The note with it: for MIC: Staphylococcus aureus.
For a further test, the system named is MRSA MW2. The test can be described thus: Checkerboard assay (Example 3), MRSA MW2. The class given is cell-based, Staphylococcus aureus. The conditions noted are these: for MIC: MRSA MW2, agent alone. How it is done: as §1
In another test the test system is MRSA USA300 (BAA-1717). The test can be described thus: Checkerboard assay (Example 3), MRSA USA300. The class given is cell-based, Staphylococcus aureus. The conditions noted are these: for MIC: MRSA USA300, agent alone. How it is done:
as §1

The test system of a further test is MRSE 35984 biofilm. The test can be described thus: MBEC assay (challenge plate MIC, recovery plate MBEC), MRSE 35984. It is filed as cell-based, Staphylococcus epidermidis. How it is done:
A sub-culture of MRSE was grown from the cryogenic stock on an agar plate overnight at 35° C. The MBEC plate was inoculated with 150 μL of TSB/well plus 1 μL of a stock culture made from 1 colony/mL of MRSE in TSB. The MBEC inoculator plate was sealed with Parafilm and incubated for 24 hours at 35° C. with 100 rpm shaking to facilitate biofilm formation on the prongs. Following biofilm formation, the lid of the MBEC inoculator was removed and placed in a rinse plate containing 200 μL of sterile PBS for 10 sec. Biofilm growth check (BGC) was performed by breaking a few prongs off using sterile pliers, submerging them in 1 mL PBS, and sonicating them on high for 30 minutes to dislodge the biofilm. After sonication, the biofilm solution was serial-diluted and spot-plated on agar plates for CFU counting to determine the biofilm density on the prongs.
A challenge plate was made in a new pre-sterilized 96-well plate in a checkerboard-assay pattern to test the synergistic activity of BPEI+antibiotic combinations. Antimicrobial solutions were serial-diluted and added to the 96-well plate, which contained 200 μL of cation-adjusted Mueller-Hinton broth (MHB) per well. Following the rinsing step and biofilm growth check, the MBEC inoculator lid was immediately transferred into the prepared antimicrobial challenge plate and incubated at 35° C. for 20-24 hours. After the challenge period, the MBEC inoculator lid was transferred into a recovery plate containing 200 μL of MHB per well, sonicated on high for 30 minutes to dislodge the biofilm and then incubated at 35° C. for 20-24 hour to allow the surviving bacterial cells to grow. After incubation, the OD600 (optical density at 600 nm) of the recovery plate was measured using a Tecan Infinite M20 plate reader to determine the MBEC of the antimicrobial compounds tested. A change in OD600 greater than 0.05 indicated positive growth. Likewise, the OD600 for the base of the challenge plate was measured […] to determine the MICs of the antimicrobial compounds.

Test [4] has as its system MRSA clinical isolate OU6. The test can be described thus: Clinical laboratory susceptibility (MicroScan), MRSA isolate 6. The class given is cell-based, S. aureus. The conditions noted are these: MicroScan PC33 gram positive panel.
In test [5] the test system is P. aeruginosa BAA-47 cells. The test can be described thus: Resazurin cell viability assay. The class given is cell-based, Pseudomonas aeruginosa. The note with it: 64 μg/mL. The method, then: All fluorescence studies used a cell density of ˜6×10^9 CFU/mL, while checkerboard assays only inoculated a cell density of 5×10^5 CFU/mL. Therefore, an amount of 128 μg/mL BPEI for fluorescence assays is considered sub-lethal, which is tested and confirmed by resazurin assays. The reduction of resazurin to resorufin occurs via cellular metabolism and thus is an excellent reporter of cell viability. […] First, the cells in the fluorescence assays are viable and thus drug influx and efflux processes control the intracellular concentration rather than widespread disruption of outer membrane that leads to cell lysis.

In test [6] the test system is P. aeruginosa BAA-47 cells. The test can be described thus: NPN accumulation assay. It is filed as cell-based, Pseudomonas aeruginosa. The conditions noted are these: 64 μg/mL polymyxin-B; 64 and 128 μg/mL BPEI600; ~6×10^9 CFU/ml.
Procedure: Overnight culture of P. aeruginosa BAA-47 was used to inoculate fresh CAMHB media for another 5 hr at 35° C. with shaking. Bacterial cells were collected by centrifugation at 6000 rpm for 40 min and resuspended in PBS. The OD600 of the cell suspension was adjusted to ˜1.0 and kept at room temperature during the experiment. Aliquots (180 μL/well) of the cell suspension were transferred to a 96-well flat-bottom black plate in the format of column 1, PBS blank; column 2, untreated control cells BAA-47; column 3, cells BAA-47+BPEI (sub-lethal concentration). Five technical replicates of each group were conducted. Fluorescent probes Hoechst 33342 bisbenzimide (H33342) or 1-N-phenylnaphthylamine (NPN) was added (20 μL) to each well with a final concentration of 5 μM. Fluorescence was read immediately after the addition of H33342 or NPN by a Tecan Infinite M20 plate reader with the excitation and emission filters of 355 and 460 nm for H33342 or 350 and 420 nm for NPN, respectively. Fluorescence data were normalized to the emission before cells were added in the PBS control, and they were plotted against time to show the cellular uptake of H33342 or NPN over 10 min.
Another test relates to MRSA OU6 biofilms. The test can be described thus: Biofilm disrupting assay (crystal violet), MRSA OU6. It is filed as cell-based, Staphylococcus aureus. The conditions noted are these: 64 and 128 μg/mL, 20 hr. How it is done: This experiment was conducted in parallel with polymyxin B (PmB, a cationic polypeptide antibiotic) and BPEI600. In short, an overnight MRSA OU 6 culture was inoculated in a tissue-culture treated 96-well plate (100 μL of tryptic soy broth or TSB/well) with an inoculation size of 1 μL/well (˜5×10^5 CFU/mL). The plate was incubated at 35° C. for 24 hr to allow the bacteria to form biofilm. It was then washed with water to remove planktonic bacteria and stained with 100 μL of crystal violet solution (0.1%) per well for 15 min. The stained plate was washed excessively with water 5 times to remove any unbound stain and air-dried overnight. […] A negative control (water only) and positive control (30% acetic acid) were also conducted at the same time of treatment. After 20 hr, without touching the biofilm layer in the bottom of the plate, solubilized solution in each treated well was carefully transferred to a new 96-well plate for an OD550 measurement, which represents the corresponding amount of biofilm disrupted by each treatment.

Where “and” joins values, the source holds several entries; their conditions need not be identical. Equal values may be shown once. Entries after “also recorded” stand apart in the source; their conditions may differ. Read-outs that look alike come from different tables or passages of the source. Marks after values point to notes of the source that are not given here.

Take `Cc1onc(-c2ccccc2)c1C(=O)N[C@@H]1C(=O)N2[C@@H]1SC(C)(C)[C@@H]2C(=O)O` [oxacillin]: the “MIC, antibiotic + 2 μg/ml (3.375 μM) 600-Da BPEI” value in [1] is 0.1 µg/mL; in test [3], 2 µg/mL. Moreover, the “MIC, antibiotic + 4 μg/ml (6.75 μM) 600-Da BPEI” value in test [1] was found to be 0.1 µg/mL; in test [3], 0.25 µg/mL. Besides, the “MIC of antibiotic only” value worked out at 0.1 µg/mL in [1] (agent alone) and 64 µg/mL in test [3] (agent alone). For the same compound, the MIC is greater than 2 µg/mL in test [2]; 32 µg/mL in the test on MRSE 35984 (MRSE 35984, agent alone); 32 µg/mL and 64 µg/mL with MRSE 35984 (MRSE 35984, agent alone, listed as OXA); 64 µg/mL in the test on MRSE 35984 (Staphylococcus epidermidis, MRSE, MRSE 35984, agent alone, read-out: MIC); 4 µg/mL with MRSE 35984 (Staphylococcus epidermidis, MRSE, read-out: oxacillin MIC with 6.67 μM BPEI600, MRSE planktonic cells); 4 µg/mL in the test with MRSE 35984 (Staphylococcus epidermidis, MRSE, read-out: oxacillin MIC with 33.37 μM of PEG350-BPEI600, MRSE planktonic cells). Further, the MIC with MRSA USA 300 ATCC 1717 (MRSA USA300, agent alone, read-out: MIC of antibiotic only) is 16 µg/mL; with MRSA USA 300 ATCC 1717 (MRSA USA300, read-out: oxacillin MIC with 16 μg/mL of PEG350BPEI600 (17 μM)), 0.5 µg/mL; with MRSA MW2 (listed as OXA), 32 µg/mL and 16 µg/mL; in the test on MRSA MW2 (Staphylococcus aureus, MRSA, read-out: MIC) it was 32 µg/mL; in the test with MRSA USA300 (BAA-1717) (listed as OXA) it was 32 µg/mL and 16 µg/mL; in the test on MRSA USA300 (BAA-1717) (Staphylococcus aureus, read-out: MIC), 32 µg/mL. The MIC with MRSE 35984 biofilm (Staphylococcus epidermidis, MRSE 35984 planktonic, agent alone) was 16 µg/mL; in test [4], greater than 2 µg/mL. Also, the “fold reduction of oxacillin MIC” value came out at 256 fold in [3] (adding 6.75 μM of BPEI600) and 2 fold in the test on MRSA USA 300 ATCC 1717 (with BPEI600, MRSA USA300). For the same compound, the entries for the “OXA MIC in combination with 600 Da BPEI” value with MRSE 35984 (BPEI amount in same cell), in the test on MRSA MW2 (BPEI amount in same cell) and in the test with MRSA USA300 (BAA-1717) (BPEI amount in same cell) were 8 µg/mL, 2 µg/mL and 4 µg/mL, respectively. The results for the “OXA MIC in combination with PEG-BPEI” value in the test on MRSE 35984 (PEG-BPEI amount in same cell), with MRSA MW2 (PEG-BPEI amount in same cell) and in the test on MRSA USA300 (BAA-1717) (PEG-BPEI amount in same cell) were 8 µg/mL, 4 µg/mL and 2 µg/mL, respectively. In the test with MRSE 35984 biofilms, the “biofilm cell density at 24 hours” value is given as ~10^3 CFU/mL. Moreover, the “MIC with 4 μg/ml (6.75 μM) 600-Da BPEI” value with MRSA USA 300 ATCC 1717 (MRSA USA300) was found to be 1 µg/mL. Moreover, in the test on MRSA USA 300 ATCC 1717 (MRSA USA300), the “MIC, antibiotic + 16 μg/ml (17 μM) PEG350BPEI600” value was determined as 0.5 µg/mL. In the test with MRSA USA 300 ATCC 1717 (MRSA USA300), the “MIC, antibiotic + 64 μg/ml (40 μM) PEG1000BPEI600” value came out at 0.5 µg/mL. In addition, in the test on MRSA USA 300 ATCC 1717 (potentiation in fetal bovine serum vs CAMHB without FBS), the “effect of 50% FBS on oxacillin MIC” value is “does not change”. In addition, in the test with MRSE 35984 biofilm (MRSE 35984 biofilm), the “MBEC, antibiotic + 4 μg/ml (6.75 μM) 600-Da BPEI” value is 8* μg/ml. Moreover, in the test on MRSE 35984 biofilm (MRSE 35984 biofilm), the “oxacillin MBEC with 8 μg/mL of BPEI” value came out at 32 µg/mL. Also, in the test on MRSE 35984 biofilm (MRSE 35984 biofilm), the “oxacillin MBEC with 64 μg/mL of BPEI” value is 8 µg/mL. Also, the “oxacillin MBEC in the presence of 13 μM of BPEI600” value in the test on MRSE 35984 biofilm (MRSE biofilm) amounted to 16 µg/mL.

As for polymyxin B, in [5], the “cell viability (resazurin)” value is recorded as “near background levels; also recorded: lethal”. Further, in test [6], the “fold increase in NPN fluorescence intensity” value was 2.7 fold. In the test with MRSA OU6 biofilms, the “biofilm dispersal (crystal violet)” value is “slight dissolution in biomass”.
